From the NIST ThermoML archive (doi:10.1016/j.fluid.2012.05.007)
± gives the expanded uncertainty stated by the source.

Tests used:
[1] = wn = mass fraction of the nth substance listed; conditions: for viscosity / mass density: 101 kPa, Liquid; for viscosity: Capillary tube (Ostwald / Ubbelohde) method; for mass density: Pycnometric method; for surface tension liquid-gas: Pendant drop shape
[2] = mn = molality of the nth substance listed, in mol/kg; conditions: for surface tension liquid-gas: Pendant drop shape; for viscosity / mass density: 101 kPa, Liquid; for viscosity: Capillary tube (Ostwald / Ubbelohde) method; for mass density: Pycnometric method
[3] = 288.15 K

CN(CCO)CCO [N-methyldiethanolamine] + O
[1]
Conditions | mass density, 288.15 K [kg/m3] | mass density, 313.15 K [kg/m3] | surface tension liquid-gas, 313.15 K [mN/m] | viscosity, 288.15 K [mPa·s] | viscosity, 313.15 K [mPa·s]
w1 = 0.1 | 1007.1 ± 1 | 1001.1 ± 1 | 58.71 ± 2.1 | 1.711 ± 0.02 | 0.905 ± 0.011
w1 = 0.2 | 1017.5 ± 1 | 1008.1 ± 1 | 54.68 ± 1.9 | 2.631 ± 0.03 | 1.312 ± 0.016

O=C([O-])CC(O)(CC(=O)[O-])C(=O)[O-].[K+].[K+].[K+] [potassium citrate] + O
[2]
Conditions | mass density, 293.15 K [kg/m3] | mass density, 303.15 K [kg/m3] | mass density, 313.15 K [kg/m3] | mass density, 323.15 K [kg/m3] | surface tension liquid-gas, 293.15 K [mN/m] | viscosity, 293.15 K [mPa·s] | viscosity, 303.15 K [mPa·s] | viscosity, 313.15 K [mPa·s] | viscosity, 323.15 K [mPa·s]
m1 = 0.45 | 1117.7 ± 1.2 | 1112.9 ± 1.2 | 1107.8 ± 1.2 | 1104.3 ± 1.2 | 71.49 ± 2.5 | 1.342 ± 0.016 | 1.05 ± 0.012 | 0.845 ± 0.01 | 0.695 ± 0.008
m1 = 0.83 | 1201.1 ± 1.3 | 1197.2 ± 1.3 | 1193.4 ± 1.3 | 1190.3 ± 1.3 | 75.75 ± 2.6 | 1.891 ± 0.022 | 1.448 ± 0.017 | 1.127 ± 0.013 | 0.925 ± 0.011
m1 = 1.16 | 1294.6 ± 1.4 | 1282.5 ± 1.4 | 1274.6 ± 1.4 | 1263.7 ± 1.4 | 79.08 ± 2.8 | 2.933 ± 0.035 | 2.205 ± 0.026 | 1.644 ± 0.019 | 1.291 ± 0.015
m1 = 1.48 | 1355.7 ± 1.4 | 1343.2 ± 1.4 | 1331.9 ± 1.4 | 1322.8 ± 1.4 | 81.1 ± 2.8 | 4.989 ± 0.058 | 3.56 ± 0.042 | 2.597 ± 0.031 | 1.986 ± 0.024

O [water]
Conditions | surface tension liquid-gas [mN/m]
[3], Pendant drop shape | 75.16 ± 2.6

Conditions | viscosity [mPa·s]
[3], 101 kPa, Liquid, Capillary tube (Ostwald / Ubbelohde) method | 1.144 ± 0.013
